Laboratory results as given in patent publication US20170199175A1, “DEVICE AND METHOD FOR ASSESSING CELL CONTRACTION” (The Governing Council of the University of Toronto, priority 2014, published 2017).
Entries after “also recorded” stand apart in the source; their conditions may differ.

system: fibroblasts; assay: Wrinkling of PDMS silicone elastomer film by contractile fibroblasts (live videomicroscopy, kymograph analysis); assay type: cell-based, rat; conditions: 1:100 PDMS film, plasma + APTES + paraformaldehyde + collagen; LPA 10 μM, cytochalasin D 1-10 μM, Y27632 10 μM
Protocol: Primary rat lung myofibroblasts and subcutaneous fibroblasts (SCF) were derived from explants and cultured from passage 2-7. All cells, including lineage aortic smooth muscle cells (A7r5) and rat embryonic fibroblasts (REF-52) were cultured in DMEM (Gibco-BRL, Basel, CH), containing 10% FCS and antibiotics. Cytochalasin D (Sigma) was used at 1-10 μM, blebbistatin (Calbiochem, Darmstadt, Germany) at 10 μM, Y27632 (Calbiochem) at 10 μM and lysophosphatic acid (LPA) (Sigma) at 10 μM. For FA maturation analysis, REF-52 were stably transfected with β3 integrin-GFP (16), full-length GFP-paxillin (Zamir et al, 2000), and α-SMA-GFP (Clement et al., 2005), using Fugene 6 (Roche, Reinach, CH).
To reduce pipetting errors and to ameliorate the mixing process, curing agent can be pre-diluted in toluene without changing the elastic properties of the polymerized material. PDMS films of 200 μm thickness were produced by distributing the respective volume with a pipette tip onto glass coverslips (#0, Karl Hecht KG, Sondheim, Germany) at the bottom of homemade observation chambers or on standard culture dishes. Substrates were degassed in a desiccator and polymerized for minimum 3 d at RT. Polymerized films were kept at RT for up to two months without changing compliance. Alternative polymerization protocols using higher curing temperatures are possible but will have an influence on the elastic modulus of the film (Lee et al., 2004). […]
Confocal images of fixed specimen were acquired using a 40× oil immersion objective (HC PL APO, NA 1.25-0.75, Leica, Glattbrugg, CH), mounted on an inverted confocal microscope (DM IRE2 with a laser scanning confocal head TCS SP2 AOBS, Leica). […] Phase contrast sequences were taken at a rate of 1 frame/min and live fluorescence images every 30 min using 20× (Plan-Apochromat, Ph2, NA 0.5) and 40× (Plan-Neofluar, Ph3, NA 1.3 oil immersion, Zeiss) objectives. […]

Compound | cell contraction (number and extension of wrinkles)
C[C@@H](N)[C@H]1CC[C@H](C(=O)Nc2ccncc2)CC1 [Y27632] | completely abolished
lysophosphatic acid [LPA] | increased cell contraction
C=C1[C@@H](C)[C@H]2[C@H](Cc3ccccc3)NC(=O)[C@]23[C@H](OC(C)=O)/C=C/[C@@](C)(O)C(=O)[C@@H](C)C/C=C/[C@H]3[C@@H]1O [cytochalasin D, Cytochalasin D] | completely abolished; also recorded: loss of cell contraction

system: hES2-derived cardiomyocytes; assay: Wrinkling-based contraction analysis of periodically contracting cardiomyocyte colonies on silicone elastomer film; assay type: cell-based, human; conditions: live treatment in three concentrations (high, medium, low): ouabain and nifidepine 0.3, 3, 30 μM; isoproterenol and blebbistatin 0.1, 1, 10 μM
Protocol: To meet standard requirements on product shelf life and ease-of-shipping, the surface treatment method was refined to provide the film surface with a dry layer of adhesive protein. The improved treatment process (“APTES/EDAC”) comprises sequential oxidation with plasma oxygen, 1% APTES for 90 min, 100 μg/ml 1-Ethyl-3-(3-dimethylaminopropyl) carbodiimide (EDAC) for 10 min (to replace the previous paraformaldehyde step), protein wet coating, and air drying. Fibronectin and gelatin were used as most widely applied proteins to promote cardiomyocyte adhesion.
The number of beating colonies was at least 20-30/well across all protein coatings following APTES/EDAC treatment but <10 beating colonies/well without APTES/EDAC functionalization (FIG. 17C). APTES/EDAC functionalization obtained wrinkles which were visible in ˜50% of all beating colonies (FIG. 17D). APTES/EDAC treated surfaces with fibronectin (2 μg/ml) and gelatin (2 and 20 μg/ml) coating were selected to optimize cell densities for contraction analysis. Cardiomyocyte seeding densities were reduced from 50,000 to 25,000, 10,000 and 5,000 cells/cm^2 and wrinkling percentages were quantified. With cell density adaptation, the percentage of wrinkling among beating colonies reached 80-90% across all protein coatings with 10,000-25,000 cells/cm^2. […] Too low density reduced the number of beating colonies and percentage of wrinkling cells (FIG. 17E). For all further experiments, the plasma oxidized and APTES/EDAC-treated biocompatible silicone elastomers of 96-wells were coated with gelatin at a concentration of 2 μg/ml and provided with 10,000 cells/cm^2 before wrinkling was assessed after 2 days.
Cardiomyocyte contraction was assessed by recording image sequences over at least 15 s with an image acquisition rate of 10 frames/s. Acquisition was performed well-by-well on four image fields per well using the 10× objective of an inverted microscope with motorized stage and fully automated stage/acquisition control. The setup was chosen to provide conditions equivalent to commercially available HTS imaging stations. […] When comparing the signals generated by contracting cardiomyocytes on films with the competitive method of shape analysis on stiff culture substrates, wrinkling analysis delivered a 10-20-fold higher signal (FIG. 18).
Referring to FIG. 28, periodically contracting cardiomyocyte colonies were recorded and live treated with cardiomyocyte affecting drugs in three concentrations (high, medium, low). Ouabain (0.3, 3, 30 μM) increased contraction amplitude at unchanged frequency, nifidepine (0.3, 3, 30 μM) decreased contraction amplitude and increased frequency, isoproterenol (0.1, 1, 10 μM) increased contraction frequency and amplitude, and blebbistatin (0.1, 1, 10 μM) decreased contraction amplitude and frequency.

Compound | contraction (beating) amplitude | contraction (beating) frequency
C[C@@H]1O[C@@H](O[C@H]2C[C@@H](O)[C@]3(CO)[C@H]4[C@H](O)C[C@]5(C)[C@@H](C6=CC(=O)OC6)CC[C@]5(O)[C@@H]4CC[C@]3(O)C2)[C@H](O)[C@H](O)[C@H]1O [Ouabain] | increased | unchanged
COC(=O)C1=C(C)NC(C)=C(C(=O)OC)C1c1ccccc1[N+](=O)[O-] [nifidepine] | decreased | increased
Cc1ccc2c(c1)C(=O)C1(O)CCN(c3ccccc3)C1=N2 (stereo not drawn) [blebbistatin] | decreased | decreased
CC(C)NCC(O)c1ccc(O)c(O)c1 (stereo not drawn) [isoproterenol] | increased | increased

system: cardiomyocytes; assay: not given; conditions: benchmark drugs, Yokoo et al. 2009 / Gai et al. 2009; cited from earlier work

Compound | frequency of beating
O=C(NCC1CCCCN1)c1cc(OCC(F)(F)F)ccc1OCC(F)(F)F (stereo not drawn) [felcainide] | decrease
CNC[C@H](O)c1cccc(O)c1 [phenylephrine] | increase
COc1ccc([C@@H]2Sc3ccccc3N(CCN(C)C)C(=O)[C@@H]2OC(C)=O)cc1 [diltiazem] | decrease
CNCC(O)c1ccc(O)c(O)c1 (stereo not drawn) [adrenaline] | increase
CCN(CC)CCNC(=O)c1ccc(N)cc1 [procainamide] | decrease
CC(C)NCC(O)c1ccc(O)c(O)c1 (stereo not drawn) [isoproterenol] | increase
COc1ccc(CCN(C)CCCC(C#N)(c2ccc(OC)c(OC)c2)C(C)C)cc1OC (stereo not drawn) [verapamil] | decrease
